One data set relates to 4T1 TNBC. Nature of the data set: Orthotopic 4T1 TNBC tumor growth and spontaneous lung metastases in BALB/c mice. It is filed as in vivo. The procedure:
Next, we tested whether treatment with the selected SLPI inhibitor C74 would decrease metastasis in vivo. Parental and modified 4T1 cells were injected into the third mammary fat pad of 8-week-old female BALB/C mice, 10^5 cells in 20 μL of HANKS per injection. The growing tumors were then either resected at a certain size or left as is. In the latter case, the mice were treated daily with intraperitoneal (i.p.) delivery of 20 mg/kg of the selected compound suppressing SLPI (or vehicle), for 12 consecutive days starting from day 6 after tumor implantation, when tumors were ˜3.8 mm in diameter on average (see FIG. 3D). The mice were sacrificed either on day 21 post primary tumor resection or 17 days after compound treatment initiation. The lungs were removed and placed in Bouin's solution (Sigma). A few days later, the lung surface was examined under a stereomicroscope and the number and size of metastases were evaluated.

The subject of the next data set is 4T1 cancer cells. Nature of the data set: MTT cell viability assay, 4T1. The note with it: 4T1 cells, 24 hours. It is filed as cell-based, murine.
The test system of the next data set is MDA-MB-468 cancer cells. Nature of the data set: MTT cell viability assay, MDA-MB-468. The note with it: MDA-MB-468 cells, 24 hours. It counts as cell-based, human.
Data set [1] concerns normal human umbilical vein endothelial cells (HUVEC). In words: MTT cell viability assay, HUVEC. It counts as cell-based. Particulars: 24 hours.
The subject of data set [2] is retinoblastoma (Rb) tumor suppressor protein phosphorylation. In words: Western blot of Rb phosphorylation in MDA-MB-231 and MCF7 cells. It counts as cell-based, human. How it is done: Lysates from 293T, MDA-MB-231, MCF7 and 4T1 cells were prepared in lysis buffer containing Tris-HCl 50 mM/pH 7.4; NaCl 150 mM; NP-40 1%; SDS 0.1%; Na-deoxycholate 0.5%; EDTA 1 mM; plus 1% phosphatase inhibitor cocktails I and II (Sigma-Aldrich, US), and 1% protease inhibitor cocktail (Roche). Equal amounts of protein (50 μg/sample) were resolved by SDS-PAGE, transferred onto nitrocellulose membranes, and immunoblotted using the following primary antibodies: anti-SLPI, anti-RB (Cell Signaling and Santa Cruz Biotechnology, US), anti-SOD2, Aurora kinase, cyclin B1 and anti-β-catenin (Cell Signaling Technology). For co-IP assays, lysates were pre-cleared with IgG, and incubated with anti-SLPI, anti-RB or control IgG antibodies linked to Sepharose-A beads. Protein complexes were dissociated from beads and separated by SDS-PAGE. Immunodetection was performed by incubation with HRP-conjugated species-specific antibodies, followed by chemiluminescence detection (Perkin Elmer, US).

Data set [3] has as its system SLPI expression (luciferase plasmid driven by the SLPI promoter). Nature of the data set: High-throughput screening: luciferase reporter driven by the SLPI promoter in MDA-MB-468 cells. Particulars: 0.31 to 5 μM (five concentrations), 24 hours. It is filed as cell-based, human. An excerpt: Human triple-negative MDA-MB-231, LS174T, HEK293T and MCF-7 and MDA-MB 468 cell lines were obtained from the ATCC collection. MDA-MB-468 cells stably expressing luciferase plasmid driven by the SLPI promoter were used for high-throughput screening. To generate SLPI overexpressing cells, cancer cells were infected with pBabe-SLPI retroviruses containing the LTR promoter and puromycin resistant genes. The SLPI knockdown 4T1 cell line was established by lentiviral infection of 4T1 cells. Lentiviral particles were produced by transfecting 293T cells with two different shRNA clones that targeted SLPI (MISSION shRNA Sigma) and viral packages (VSVG,psPAX2) using FuGENE reagent (Promega, US). SLPI down-regulation was confirmed by using both q-PCR and ELISA.
After establishing that SLPI is a valid target for inhibiting TNBC metastasis, small molecules for use in inhibiting SLPI pharmacologically were screened. Human TNBC cell line MDA-MB-468 with a Luciferase plasmid driven by the SLPI promoter was used to perform high-throughput screening of a small-molecule library of 60,000 chemically-diverse compounds. Compounds (5 μM) were diluted in 100% DMSO, and spotted per well to 384-well plates using a Multimek 96/384 Channel Automated Pipetter. A cell-based readout system was used for compound selection. […] Selected compounds were also analyzed with 90% of SLPI repression. […]
A general note: In a reporter assay the amount or activity of a reporter protein is the signal.

The subject of another data set is Rb-FoxM1 interaction. Nature of the data set: Mammalian two-hybrid system, GAL4-Rb and VP16-FoxM1 in HEK293T cells. It counts as cell-based, human. The note with it: 1.5 μg/mL added to cell media, time course. The source says: For further verification of this interaction, a standard mammalian two-hybrid approach was used. The two genes encoding two of the three potentially interactive proteins of interest (Rb, SLPI and FoxM1) were cloned into pBIND and pACT vectors to generate fusion proteins with the DNA-binding domain of GAL4 and the activation domain of VP16. HEK293T cells were transiently transfected with a pG5luc luciferase reporter plasmid, pGAL4 and pVP16 fusion constructs. After two days, the transfected cells were lysed and the levels of luciferase were quantitated. Interaction between the two test proteins results in an increase in luciferase expression over the negative controls that included pBIND and pACT vectors. The pairs of fusion proteins GAL4-Rb plus VP16-SLPI induced activation of the reporter construct about 7 times more than the negative controls, as shown in FIG. 4C.

For data set [4], the system named is FoxM1 binding to the MMP2 promoter. In words: Electrophoretic mobility shift assay, FoxM1 binding to MMP2 promoter probe. It counts as cell-based, human. Particulars: protein extracts from treated MDA-MB-231 cells versus untreated cells. How it is done:
To directly test the ability of SLPI to modify FoxM1 binding to another target gene, MMP2, we used the electrophoretic mobility shift assay. Electrophoretic mobility shift assays (EMSAs) were performed following manufacture protocol using kit from Thermo Fisher. Double-stranded oligonucleotides from MMP2 promoter with FoxM1 binding site were used: 5′-[…]-3′ (SEQ ID NO: 1). End-labelled DNA was detected using streptavidin-conjugated horseradish peroxidase. For the supershift assay, antibody against FoxM1 (Cell Signaling) was added to the binding reaction for 1 hour on ice.
The MMP2 promoter sequence comprising the FoxM1-binding site (−662 to −671 bp) was biotin-labeled and used as a probe for the protein binding gene promoter region (see e.g., Dai et al, Oncogene, 2007, 26:6212-6219). The probe was incubated with protein extracts from SLPI-treated MDA-MB-231 cells and untreated cells. […] The binding of this protein to the probe was sequence-specific, as it was blocked by competition with an unlabeled FoxM1 oligomer. To confirm that FoxM1 bound to MMP2 promoter in the presence of SLPI, a supershift assay was performed by adding FoxM1-binding antibody to that protein-DNA complex. The enhanced probe retardation is shown in lane 5 in FIG. 6A.
(In general: Mobility shift assays separate free from complexed probe on a gel.)

Setting [5] is: 20 mg/kg i.p. daily for 12 days, lungs evaluated on day 23.

Entries after “also recorded” stand apart in the source; their conditions may differ.

With `CCCOC(=O)c1cccc(NC(=O)COc2ccccc2Cl)c1` [Compound C74, propyl 3-(2-(2-chlorophenoxy)acetamido)benzoate], the “changes in mouse weight, appearance, or behavior” value in the data set on 4T1 TNBC (20 mg/kg i.p. daily for 12 days) was “did not cause changes”. For the same molecule, in the data set with 4T1 TNBC (setting [5]), the “decrease of total number of lung metastases” value was 50%. Moreover, in the data set with 4T1 TNBC (setting [5]), the “size of lung metastatic colonies” value is on record as “much smaller”. In addition, in the data set on 4T1 TNBC (4T1 in mammary fat pad, 20 mg/kg i.p. daily for 12 days from day 6, 20 mg/kg), the “primary tumor growth (tumor diameter)” value was “suppressed tumor growth and metastasis; also recorded: small, progressive inhibition of primary tumor growth”. Further, the “toxic effect (cell viability, MTT assay)” value (in the data set on 4T1 cancer cells; in the data set with MDA-MB-468 cancer cells; in data set [1]) was “no toxic effect” throughout. Also, in data set [2] (1 μM for 16 h), the “Rb phosphorylation (phospho-Rb Western blot)” value is reported as “repressed Rb phosphorylation; also recorded: decreased phosphorylation of Rb”. Moreover, the “SLPI expression quantified using luciferase activity driven by the SLPI promoter” value in data set [3] is given as “inhibition of SLPI expression; also recorded: Dose dependence of SLPI repression was confirmed”.

B1: recombinant SLPI protein: recombinant secretory leukocyte protease inhibitor protein added to cells at 1.5 μg/mL (protein, UniProt P03973 26-132, looked up)
Antileukoproteinase: SGKSFKAGVCPPKKSAQCLRYKKPECQSDWQCPGKKRCCPDTCGIKCLDPVDTPNPTRRKPGKCPVTYGQCLMLNPPNFCEMDGQCKRDLKCCMGMCGKSCVSPVKA
Turning to B1, the “reporter construct activation (Rb-FoxM1 binding)” value with Rb-FoxM1 interaction was “progressive decrease of reporter construct activation”. Further, the “Rb phosphorylation (phospho-Rb Western blot)” value in data set [2] (recombinant protein 1.5 μg/mL, as early as 1-2 h post treatment) was “increased phosphorylation of Rb”. Also, the “binding activity of FoxM1 to MMP2 promoter probe” value in data set [4] is “substantial increase in binding activity of FoxM1”.
